Measured values from patent US8192962B2, “Processes for detecting toxic substances” (Daikin Industries, Ltd., priority 2001, dated 2012).

Tested on: Genes belonging to other category
Test: DNA chip mRNA expression in yeast, genes belonging to other category (Table 9)
Type: cell-based, Saccharomyces cerevisiae S288C
Experimental: Yeast (Saccharomyces cerevisiae S288C (α SUC2mal mel gap2 CUP1)) were incubated at 25° C. on YPD medium (yeast extract 1%, polypepton 2%, glucose 2%). One of toxic chemical substances was added to the cells at logarithmic growth phase, and the cells were further incubated for two hours. Cells were cultured without any chemical substance in the same condition, and were used as control. Concentrations of the chemical substances were defined to inhibit the growth of the yeast but not lead to death.
After completion of the incubation, the culture was centrifuged to collect the cells. To the cells, sodium acetate buffer (50 mM sodium acetate, 10 mM EDTA, 1% SDS) was added, and the mixture was shaken at 65° C. for five minutes, followed by returning to room temperature, and obtaining the supernatant, of which the procedures were repeated two times. To the supernatant, ½ amount of a solution of phenol/chloroform was added, and the mixture was centrifuged to give a supernatant, which was added with an equal amount of chloroform, and the mixture was centrifuged to give a supernatant. To the supernatant, an equal amount of isopropanol containing 0.3 M sodium acetate was added, and the mixture was allowed to stand at room temperature for 30 minutes, after which the mixture was centrifuged to give a sediment of the whole RNAs. Seventy % ethanol was added to the sediment, and the mixture was again centrifuged to give a sediment, which was then dried and dissolved in water. mRNA was isolated from the whole RNAs as followings. In view of the fact that a poly A chain is attached to the 3′ terminus of mRNA, a polynucleotide having a poly T structure which was immobilized on the surface of latex beads was used to trap the mRNA, and then the mRNA was washed and eluted with spine column (Oligotex-dT30<Super>mRNA Purification Kit, Takara). Reverse transcription of the mRNA was conducted with a reverse transcriptase (Super Script II Reverse Transcriptase; catalogue No. 18064-014, GibcoBRL) using fluorescence-labeled nucleotides to give cDNAs that were introduced with Cy3-dUTP or Cy5-dUTP during the reverse transcription.
The labeled cDNAs were dissolved in TE buffer (10mM Tris-HCl/1 mM EDTA, pH8.0), and the solution was dropped on the DNA chip containing the whole genes of yeast (DNA Chip Research Inc. Japan) so that the cDNAs were hybridized on the DNA chip at 65° C. for over 12 hours. The fluoresces intensity of the DNA chip was read with a scanner, and the ratio relative to the fluorescence intensity resulting from the absence of chemical substance was estimated as the following, which is shown in Tables 1 to 9: […]

Substance: manganese ethylenebis(dithiocarbamate) [(8)]
- The level of expressed mRNA in the presence of chemical substance/The level of expressed mRNA in the absence of chemical substance (yeast gene YKL008C): 1.2
- The level of expressed mRNA in the presence of chemical substance/The level of expressed mRNA in the absence of chemical substance (yeast gene YKL013C): 0.9
- The level of expressed mRNA in the presence of chemical substance/The level of expressed mRNA in the absence of chemical substance (yeast gene YKL039W): 0.8
- The level of expressed mRNA in the presence of chemical substance/The level of expressed mRNA in the absence of chemical substance (yeast gene YKL096W): 0.5
- The level of expressed mRNA in the presence of chemical substance/The level of expressed mRNA in the absence of chemical substance (yeast gene YKL165C): 1.5
- The level of expressed mRNA in the presence of chemical substance/The level of expressed mRNA in the absence of chemical substance (yeast gene YKL193C): 1.4
- The level of expressed mRNA in the presence of chemical substance/The level of expressed mRNA in the absence of chemical substance (yeast gene YLR120C): 0.9
- The level of expressed mRNA in the presence of chemical substance/The level of expressed mRNA in the absence of chemical substance (yeast gene YLR136C): 1.1
- The level of expressed mRNA in the presence of chemical substance/The level of expressed mRNA in the absence of chemical substance (yeast gene YLR178C): 0.9
- The level of expressed mRNA in the presence of chemical substance/The level of expressed mRNA in the absence of chemical substance (yeast gene YLR250W): 1.3
- The level of expressed mRNA in the presence of chemical substance/The level of expressed mRNA in the absence of chemical substance (yeast gene YLR327C): 2.2
- The level of expressed mRNA in the presence of chemical substance/The level of expressed mRNA in the absence of chemical substance (yeast gene YLR356W): 0.7
- The level of expressed mRNA in the presence of chemical substance/The level of expressed mRNA in the absence of chemical substance (yeast gene YLR362W): 1.4
- The level of expressed mRNA in the presence of chemical substance/The level of expressed mRNA in the absence of chemical substance (yeast gene YLR391W): 0.7
- The level of expressed mRNA in the presence of chemical substance/The level of expressed mRNA in the absence of chemical substance (yeast gene YLR429W): 1.0
- The level of expressed mRNA in the presence of chemical substance/The level of expressed mRNA in the absence of chemical substance (yeast gene YMR004W): 1.0
- The level of expressed mRNA in the presence of chemical substance/The level of expressed mRNA in the absence of chemical substance (yeast gene YMR094W): 1.0
- The level of expressed mRNA in the presence of chemical substance/The level of expressed mRNA in the absence of chemical substance (yeast gene YMR104C): 0.9
- The level of expressed mRNA in the presence of chemical substance/The level of expressed mRNA in the absence of chemical substance (yeast gene YMR219W): 1.1
- The level of expressed mRNA in the presence of chemical substance/The level of expressed mRNA in the absence of chemical substance (yeast gene YMR226C): 1.6
- The level of expressed mRNA in the presence of chemical substance/The level of expressed mRNA in the absence of chemical substance (yeast gene YMR275C): 0.8
- The level of expressed mRNA in the presence of chemical substance/The level of expressed mRNA in the absence of chemical substance (yeast gene YMR276W): 0.8
- The level of expressed mRNA in the presence of chemical substance/The level of expressed mRNA in the absence of chemical substance (yeast gene YMR314W): 1.2
- The level of expressed mRNA in the presence of chemical substance/The level of expressed mRNA in the absence of chemical substance (yeast gene YNL006W): 1.1
- The level of expressed mRNA in the presence of chemical substance/The level of expressed mRNA in the absence of chemical substance (yeast gene YNL007C): 0.8
- The level of expressed mRNA in the presence of chemical substance/The level of expressed mRNA in the absence of chemical substance (yeast gene YNL093W): 0.8
- The level of expressed mRNA in the presence of chemical substance/The level of expressed mRNA in the absence of chemical substance (yeast gene YNL333W): 2.1
- The level of expressed mRNA in the presence of chemical substance/The level of expressed mRNA in the absence of chemical substance (yeast gene YNR010W): 1.1
- The level of expressed mRNA in the presence of chemical substance/The level of expressed mRNA in the absence of chemical substance (yeast gene YNR069C): 1.4
- The level of expressed mRNA in the presence of chemical substance/The level of expressed mRNA in the absence of chemical substance (yeast gene YOL013C): 1.0
- The level of expressed mRNA in the presence of chemical substance/The level of expressed mRNA in the absence of chemical substance (yeast gene YOL164W): 1.0
- The level of expressed mRNA in the presence of chemical substance/The level of expressed mRNA in the absence of chemical substance (yeast gene YOR036W): 1.4
- The level of expressed mRNA in the presence of chemical substance/The level of expressed mRNA in the absence of chemical substance (yeast gene YOR117W): 1.0
- The level of expressed mRNA in the presence of chemical substance/The level of expressed mRNA in the absence of chemical substance (yeast gene YOR124C): 1.3
- The level of expressed mRNA in the presence of chemical substance/The level of expressed mRNA in the absence of chemical substance (yeast gene YOR132W): 1.2
- The level of expressed mRNA in the presence of chemical substance/The level of expressed mRNA in the absence of chemical substance (yeast gene YOR157C): 1.2
- The level of expressed mRNA in the presence of chemical substance/The level of expressed mRNA in the absence of chemical substance (yeast gene YOR181W): 0.7
- The level of expressed mRNA in the presence of chemical substance/The level of expressed mRNA in the absence of chemical substance (yeast gene YOR185C): 1.4
- The level of expressed mRNA in the presence of chemical substance/The level of expressed mRNA in the absence of chemical substance (yeast gene YOR198C): 1.3
- The level of expressed mRNA in the presence of chemical substance/The level of expressed mRNA in the absence of chemical substance (yeast gene YOR259C): 1.1
- The level of expressed mRNA in the presence of chemical substance/The level of expressed mRNA in the absence of chemical substance (yeast gene YOR261C): 2.6
- The level of expressed mRNA in the presence of chemical substance/The level of expressed mRNA in the absence of chemical substance (yeast gene YOR288C): 1.9
- The level of expressed mRNA in the presence of chemical substance/The level of expressed mRNA in the absence of chemical substance (yeast gene YOR355W): 0.8
- The level of expressed mRNA in the presence of chemical substance/The level of expressed mRNA in the absence of chemical substance (yeast gene YOR383C): 1.0
- The level of expressed mRNA in the presence of chemical substance/The level of expressed mRNA in the absence of chemical substance (yeast gene YPL089C): 0.8
- The level of expressed mRNA in the presence of chemical substance/The level of expressed mRNA in the absence of chemical substance (yeast gene YPL109C): 1.1
- The level of expressed mRNA in the presence of chemical substance/The level of expressed mRNA in the absence of chemical substance (yeast gene YPL149W): 1.1
- The level of expressed mRNA in the presence of chemical substance/The level of expressed mRNA in the absence of chemical substance (yeast gene YPL154C): 0.8
- The level of expressed mRNA in the presence of chemical substance/The level of expressed mRNA in the absence of chemical substance (yeast gene YPR103W): 1.0
- The level of expressed mRNA in the presence of chemical substance/The level of expressed mRNA in the absence of chemical substance (yeast gene YPR108W): 1.6
